Earlier results on five compounds are cited in US20220142904A1, “A METHOD OF COLORING KERATINOUS MATERIAL COMPRISING THE USE OF AN ORGANOSILICON COMPOUND, A COLORING COMPOUND, A SEALING REAGENT, AND A MIXTURE OF SILICONES” (Henkel AG & Co. KGaA, priority 2019, published 2022).

For the data set the following is noted: for solubility in water: 25° C.

Consider `O=S(=O)([O-])c1ccc(N=Nc2c(O)ccc3ccccc23)cc1.[Na+]` [Acid Orange 7, sodium salt of 4-[(2-hydroxy-1-naphthyl)azo]benzene sulphonate], for which the solubility in water entry is recorded as “more than 7 g/L”.
For `Nc1cc(S(=O)(=O)[O-])cc2cc(S(=O)(=O)[O-])c(N=Nc3ccccc3)c(O)c12.[Na+].[Na+]` [Acid Red 33, disodium salt of 5-amino-4-hydroxy-3-(phenylazo)-naphthalene-2,7-disulphonate], the solubility in water was 2.5 mg/mL.
Turning to `O=C([O-])c1c(Cl)c(Cl)c(Cl)c(Cl)c1-c1c2c(Br)cc(=O)c(Br)c-2oc2c(Br)c(O)cc(Br)c12.O=C([O-])c1c(Cl)c(Cl)c(Cl)c(Cl)c1-c1c2c(Br)cc(=O)c(Br)c-2oc2c(Br)c(O)cc(Br)c12.[Na+].[Na+]` [Acid Red 92, disodium salt of 3,4,5,6-tetrachloro-2-(1,4,5,8-tetrabromo-6-hydroxy-3-oxoxanthen-9-yl)benzoic acid], the solubility in water result is on record as “greater than 10 g/L”.
As for `O=C([O-])C1=NN(c2ccc(S(=O)(=O)[O-])cc2)C(=O)C1N=Nc1ccc(S(=O)(=O)[O-])cc1.[Na+].[Na+].[Na+]` (centres unmarked) [Acid Yellow 23, trisodium salt of 4,5-dihydro-5-oxo-1-(4-sulfophenyl)-4-((4-sulfophenyl)azo)-1H-pyrazole-3-carboxylic acid], the “solubility in water (in words)” value (water at 25° C.) is “highly soluble”.
With “sodium salts of mono- and disulfonic acids of 2-(2-quinolyl)-1H-indene-1,3(2H)-dione [Acid Yellow 3]”, the solubility in water is 20 mg/mL.
